Laboratory results: patent publication US20040106802A1, “Novel compounds and therapeutic uses thereof” (TORRENT PHARMACEUTICALS LTD., priority 2002, published 2004)
Structures can show the parent of a compound that is named as a salt. Where two headings read alike, the source gives them in different places.

Assays:
[1] = In-vitro free radical scavenging activity using DPPH free radical; settings: 30° C., 30 minutes, 515 nm
Excerpt: Free Radical Scavenging Activity:
To determine the in-vitro free radical scavenging activity of compounds of general formula-I on 2,2,-diphenyl-1-picrylhydrazyl (DPPH)radical (Ref: W. Brand-Williams, M. E. Cuvelier, C. Berset “Use of a free radical method to evaluate antioxidant activity”, Lebensm.- Wiss.u.Technol.,1995,28,Nr.1:25-30).
To evaluate the free radical scavenging activity of compounds they are allowed to react with stable radical DPPH*. In its radical form, DPPH* absorbed at the characteristic wave length of 515 nm, but upon reduction by an antioxidant or radical scavenger (AH), the absorption disappears.
10^−4M solution of DPPH* was prepared in methanol.
Various concentrations (10 mM, 1 mM, 0.5 mM, 0.25 mM and 0.125 mM) of drug solutions were prepared in methanol.
900 μl of DPPH radical solution was added to an eppendorf tube. To it was added 100 μl of methanol.
900 μl of DPPH radical solution was added to an eppendorf tube. To it was added 100 μl of various concentrations of drug solutions in methanol.
The absorbance of control and test samples was recorded after incubation at 30° C. for 30 minutes, at 515 nm taking methanol as blank.
The percent antioxidant activity was calculated according to the formula:
% Antioxidant activity=100−[O.D of test sample/O.D of control*100]

Porcine DPP-IV = target: T1, Porcine DPP-IV (Sus scrofa, UniProt P22411); experiment: Assay of DPP-IV enzyme inhibitory activity (spectrophotometric, Gly-Pro-pNA cleavage); type: biochemical
T1 construct: purchased Sigma-Aldrich Germany

[2] = Porcine DPP-IV, Gly-Pro-pNA substrate, 30° C., mean ± SD of three experiments except compound Nos. 133 & 139, read-out: IC50 (μM) Mean ± SD, inhibitory activity on DPP-IV enzyme activity

T1 sequence (P22411 whole entry): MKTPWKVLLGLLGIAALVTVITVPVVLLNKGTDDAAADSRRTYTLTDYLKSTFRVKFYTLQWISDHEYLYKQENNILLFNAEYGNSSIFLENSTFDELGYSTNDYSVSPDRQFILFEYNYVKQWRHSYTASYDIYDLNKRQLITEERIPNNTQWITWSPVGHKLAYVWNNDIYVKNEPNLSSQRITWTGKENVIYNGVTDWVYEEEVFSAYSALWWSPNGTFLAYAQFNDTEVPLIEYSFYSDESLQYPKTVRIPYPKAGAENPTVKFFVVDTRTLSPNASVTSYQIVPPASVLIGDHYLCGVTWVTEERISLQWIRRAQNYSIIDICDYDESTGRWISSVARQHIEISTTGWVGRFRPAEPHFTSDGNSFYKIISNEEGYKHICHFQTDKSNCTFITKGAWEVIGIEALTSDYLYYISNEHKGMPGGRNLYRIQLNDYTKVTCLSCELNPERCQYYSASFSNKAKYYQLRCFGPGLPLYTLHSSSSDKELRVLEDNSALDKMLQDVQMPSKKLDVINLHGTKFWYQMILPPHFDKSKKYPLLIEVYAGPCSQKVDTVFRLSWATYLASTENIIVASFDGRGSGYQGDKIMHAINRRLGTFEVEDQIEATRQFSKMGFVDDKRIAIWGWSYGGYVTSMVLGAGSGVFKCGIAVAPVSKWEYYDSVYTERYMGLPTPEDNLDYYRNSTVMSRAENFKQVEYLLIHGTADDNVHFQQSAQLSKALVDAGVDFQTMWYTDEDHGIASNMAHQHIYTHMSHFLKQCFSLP

## CC(C)(C)C(=O)NC1CCC(N(N)CC(=O)N2CSCC2C#N)CC1.O=C(O)C(F)(F)F (stereo not drawn) [Compound No. 98, 3-[1-oxo-2-[(1-(trimethylacetamido)cyclohexan-4-yl)]hydrazino]ethyl-4-cyanothiazolidine trifluoroacetate]
[1]; Concentration 12.5 μM, 12.5 µM
  % Activity (antioxidant, DPPH): 21.99%
[1]; Concentration 25 μM, 25 µM
  % Activity (antioxidant, DPPH): 40.77%
[1]; Concentration 50 μM, 50 µM
  % Activity (antioxidant, DPPH): 59.21%
[1]; Concentration 100 μM, 100 µM
  % Activity (antioxidant, DPPH): 73.35%
Porcine DPP-IV; [2]
  IC50: 0.71 ± 0.01 µM

## CC(C)(C)C(=O)NC1CCC(N(N)CC(=O)N2CSCC2C#N)CC1.O=C(O)C(F)(F)F (stereo not drawn) [Compound No. 96, 3-[1-oxo-2-[1-(1-(trimethylacetamido)cyclohexan-4-yl)]hydrazino]ethyl-4-cyanothiazolidine trifluoroacetate]
[1]; Concentration 12.5 μM, 12.5 µM
  % Activity (antioxidant, DPPH): 19.11%
[1]; Concentration 25 μM, 25 µM
  % Activity (antioxidant, DPPH): 34.43%
[1]; Concentration 50 μM, 50 µM
  % Activity (antioxidant, DPPH): 48.83%
[1]; Concentration 100 μM, 100 µM
  % Activity (antioxidant, DPPH): 63.26%
Porcine DPP-IV; [2]
  IC50: 4 ± 0.144 µM

## N#Cc1ccc(NC(=O)CN2CCC(N(N)CC(=O)N3CSCC3C#N)CC2)nc1 (stereo not drawn) [compound 120, 3-[1-oxo-2-(1-(1-(2-oxo-2(5-cyanopyridin-2-yl)aminoethyl)piperidin-4-yl))hydrazino]ethyl-4-cyanothiazolidine, tris-trifluoroacetate]
[1]; Concentration 100 μM
  % Activity (antioxidant, DPPH): 55.03%
Porcine DPP-IV; [2]
  IC50: 0.09 ± 0.02 µM

## N#Cc1ccc(NC(=O)CN2CCC(N(N)CC(=O)N3CSCC3C#N)CC2)cc1 (stereo not drawn) [Compound No. 99, 3-[1-oxo-2-[1-(1-(2-oxo-2-(4-cyanophenyl)aminoethyl)piperidin-4-yl)]hydrazino]ethyl-4-cyanothiazolidine bis-trifluoroacetate]
[1]; Concentration 12.5 μM
  % Activity (antioxidant, DPPH): 15.12%
[1]; Concentration 25 μM
  % Activity (antioxidant, DPPH): 24.87%
[1]; Concentration 50 μM
  % Activity (antioxidant, DPPH): 39.13%
[1]; Concentration 100 μM
  % Activity (antioxidant, DPPH): 53.33%
Porcine DPP-IV; [2]
  IC50: 0.2 ± 0.04 µM
Porcine DPP-IV; read-out: dipeptidyl peptidase-IV inhibitory IC50's in the range
  IC50: 0.088 to 0.25 µM

## CC(C)NN(CC(=O)N1CSCC1C#N)C1CCN(S(C)(=O)=O)CC1.O=C(O)C(F)(F)F (stereo not drawn) [Compound No. 87, 3-[1-oxo-2-[1-(1 (methylsulphonyl)-piperidin-4-yl)-2-isopropyl]hydrazino]ethyl-4-cyanothiazolidine trifluoroacetate]
[1]; Concentration 12.5 μM
  % Activity (antioxidant, DPPH): 12.87%
[1]; Concentration 25 μM
  % Activity (antioxidant, DPPH): 30.88%
[1]; Concentration 50 μM
  % Activity (antioxidant, DPPH): 44.03%
[1]; Concentration 100 μM
  % Activity (antioxidant, DPPH): 55.94%
Porcine DPP-IV; [2]
  IC50: 18.3 ± 3.2 µM

## CCNN(CC(=O)N1CSCC1C#N)C1CCN(C(=O)N2CCOCC2)CC1.O=C(O)C(F)(F)F (stereo not drawn) [Compound No. 89, 3-[1-oxo-2-[1-(1-(morpholinocarbonyl)-piperidin-4-yl)-2-ethyl]hydrazino]ethyl-4-cyanothiazolidine trifluoroacetate]
[1]; Concentration 12.5 μM
  % Activity (antioxidant, DPPH): 10.37%
[1]; Concentration 25 μM
  % Activity (antioxidant, DPPH): 20.74%
[1]; Concentration 50 μM
  % Activity (antioxidant, DPPH): 36.94%
[1]; Concentration 100 μM
  % Activity (antioxidant, DPPH): 55.07%
Porcine DPP-IV; [2]
  IC50: 0.985 ± 0.086 µM

## CS(=O)(=O)NC1CCC(N(N)CC(=O)N2CSCC2C#N)CC1 (stereo not drawn) [Compound No. 114, 3-[1-oxo-2-(1-(1-methanesulphonylamino-4-cyclohexyl)hydrazino)]ethyl-4-cyanothiazolidine hydrochloride]
[1]; Concentration 12.5 μM
  % Activity (antioxidant, DPPH): 19.23%
[1]; Concentration 25 μM
  % Activity (antioxidant, DPPH): 39.37%
[1]; Concentration 50 μM
  % Activity (antioxidant, DPPH): 78.16%
[1]; Concentration 100 μM
  % Activity (antioxidant, DPPH): 92.76%
Porcine DPP-IV; [2]
  IC50: 0.397 ± 0.02 µM

## N#CC1CSCN1C(=O)CN(N)C1CCN(Cc2ccc(F)cc2)CC1 (stereo not drawn) [Compound No. 94, 3-[1-oxo-2-[1-(1-(4-fluorobenzyl)-piperidin-4-yl)]hydrazino]ethyl-4-cyanothiazolidine bis-trifluoroacetate]
[1]; Concentration 12.5 μM
  % Activity (antioxidant, DPPH): 9.34%
[1]; Concentration 25 μM
  % Activity (antioxidant, DPPH): 24.05%
[1]; Concentration 50 μM
  % Activity (antioxidant, DPPH): 39.04%
[1]; Concentration 100 μM
  % Activity (antioxidant, DPPH): 55.85%
Porcine DPP-IV; [2]
  IC50: 2.23 ± 0.08 µM

## N#CC1CSCN1C(=O)CN(N)C1CCN(CC(=O)Nc2ccc(S(N)(=O)=O)cc2)CC1 (stereo not drawn) [compound 131, 3-[1-oxo-2-(1-(1-(2-oxo-2-(4-aminosulphonylphenyl)aminoethyl)piperidin-4-yl))hydrazino]ethyl-4-cyanothiazolidine, bis-trifluoroacetate]
[1]; Concentration 100 μM
  % Activity (antioxidant, DPPH): 57.73%
Porcine DPP-IV; [2]
  IC50: 0.0985 ± 0.012 µM

## CCNN(CC(=O)N1CSCC1C#N)C1CCC(NS(C)(=O)=O)CC1 (stereo not drawn) [Compound No. 97, 3-[1-oxo-2-[1-(1-(methanesulphonyl)aminocyclohexan-4-yl)-2-ethyl]hydrazino]ethyl-4-cyanothiazolidine]
[1]; Concentration 12.5 μM
  % Activity (antioxidant, DPPH): 18.06%
[1]; Concentration 25 μM
  % Activity (antioxidant, DPPH): 38.30%
[1]; Concentration 50 μM
  % Activity (antioxidant, DPPH): 66.99%
[1]; Concentration 100 μM
  % Activity (antioxidant, DPPH): 91.67%
Porcine DPP-IV; [2]
  IC50: 1.03 ± 0.07 µM

## CCN(C)C(=O)N1CCC(N(N)CC(=O)N2CSCC2C#N)CC1.O=C(O)C(F)(F)F (stereo not drawn) [Compound No. 90, 3-[1-oxo-2-[1-(1-(N-ethylmethylaminocarbonyl)-piperidin-4-yl)]hydrazino]ethyl-4-cyanothiazolidine trifluoroacetate]
[1]; Concentration 12.5 μM
  % Activity (antioxidant, DPPH): 21.81%
[1]; Concentration 25 μM
  % Activity (antioxidant, DPPH): 42.93%
[1]; Concentration 50 μM
  % Activity (antioxidant, DPPH): 62.91%
[1]; Concentration 100 μM
  % Activity (antioxidant, DPPH): 82.75%
Porcine DPP-IV; [2]
  IC50: 1.23 ± 0.3 µM

## Cc1nc(NC(=O)CN2CCC(N(N)CC(=O)N3CSCC3C#N)CC2)sc1C (stereo not drawn) [compound 119, 3-[1-oxo-2-(1-(1-(2-oxo-2-(4,5-dimethylthiazole-2-yl)aminoethyl)piperidin-4-yl)) hydrazino]ethyl-4-cyanothiazolidine, tris-trifluoroacetate]
[1]; Concentration 100 μM
  % Activity (antioxidant, DPPH): 54.93%
Porcine DPP-IV; [2]
  IC50: 0.185 ± 0.01 µM

## CC1CCC(N(N)CC(=O)N2CSCC2C#N)CC1.O=C(O)C(F)(F)F (stereo not drawn) [Compound No. 29, 3-[1-Oxo-2-((1-(4-methyl)cyclohexyl)-hydrazino)]ethyl-4-cyano thiazolidine trifluoroacetate]
[1]; Concentration 100 μM, 100 µM
  % Activity (antioxidant, DPPH): 93.70%
Porcine DPP-IV; [2]
  IC50: 0.8 ± 0.15 µM

## N#CC1CSCN1C(=O)CN(N)C1CCC(NCc2ccc(F)cc2)CC1 (stereo not drawn) [Compound No. 93, 3-[1-oxo-2-[1-(1-(4-fluorobenzyl)aminocyclohexan-4-yl)]hydrazino]ethyl-4-cyanothiazolidine bis-trifluoroacetate]
[1]; Concentration 12.5 μM
  % Activity (antioxidant, DPPH): 15.18%
[1]; Concentration 25 μM
  % Activity (antioxidant, DPPH): 28.08%
[1]; Concentration 50 μM
  % Activity (antioxidant, DPPH): 44.13%
[1]; Concentration 100 μM
  % Activity (antioxidant, DPPH): 64.24%
Porcine DPP-IV; [2]
  IC50: 5.56 ± 0.18 µM

## COc1ccc(S(=O)(=O)NC2CCC(N(N)CC(=O)N3CSCC3C#N)CC2)cc1.O=C(O)C(F)(F)F (stereo not drawn) [Compound No. 92, 3-[1-oxo-2-[1-(1-(4-methoxyphenylsulphonyl)aminocyclohexan-4-yl)]hydrazino]ethyl-4-cyanothiazolidine trifluoroacetate]
[1]; Concentration 12.5 μM
  % Activity (antioxidant, DPPH): 10.07%
[1]; Concentration 25 μM
  % Activity (antioxidant, DPPH): 30.36%
[1]; Concentration 50 μM
  % Activity (antioxidant, DPPH): 58.48%
[1]; Concentration 100 μM
  % Activity (antioxidant, DPPH): 78.77%
Porcine DPP-IV; [2]
  IC50: 1.33 ± 0.124 µM

## CCNN(CC(=O)N1CSCC1C#N)C1CCN(CC(=O)Nc2ccc(Cl)cn2)CC1 (stereo not drawn) [Compound No. 101, 3-[1-oxo-2-[1-(1-(2-oxo-2-(5-chloropyridin-2-yl)aminoethyl)piperidin-4-yl)]-2 ethylhydrazino]ethyl-4-cyanothiazolidine tris-hydrochloride]
[1]; Concentration 12.5 μM
  % Activity (antioxidant, DPPH): 20.41%
[1]; Concentration 25 μM
  % Activity (antioxidant, DPPH): 31.00%
[1]; Concentration 50 μM
  % Activity (antioxidant, DPPH): 32.19%
[1]; Concentration 100 μM
  % Activity (antioxidant, DPPH): 61.15%
Porcine DPP-IV; [2]
  IC50: 0.488 ± 0.017 µM
